Tests used:
[1] = target: Brevibacterium aurantiacum (ATCC 9175; formerly B. linens) methionine gamma-lyase MGL-BL929, recombinant, SEQ ID NO: 1 (Brevibacterium aurantiacum, UniProt A0A2H1K3G9); conditions: for activity of the enzyme towards the substrate (in words): 25 mM of substrate; for activity of the enzyme towards the substrate (in words) / Vmax: pH 7.5, 25° C., 10 min; for Vmax: 100 mM K*PO4, 0.01 mM PLP
HT29MTX cells = experiment: Growth inhibition of HT29MTX cells (Trypan blue dye exclusion), resistance to methotrexate; assay type: cell-based, human; conditions: 1 μM methotrexate
Source text: Seven human tumor cell lines were used to determine the cellular effects of MGL-BL929. These comprise five adherent solid tumor-derived cell lines (including the colorectal carcinoma cell line HT29, two stable variants of HT29 selected for their high levels of resistance to methotrexate (HT29MTX), and to fluorouracil (HT29FUra), the ovarian carcinoma cell line SKOV3, and the hepatoblastoma-derived cell line (HepG2), and 2 non-adherent tumor cell lines (including the T-cell lymphoma cell line Jurkat, and the acute lymphocytic leukemia cell line Reh). Similarly, human non-tumor skin fibroblasts (CDGII) were exposed to MGL-BL929 at various concentrations in order to explore selectivity of MGL-BL929 towards cancer cells.
The cells lines were thawed from mycoplasma-free frozen stocks and were controlled for contamination. Cells were maintained in cell culture medium (RPMI 1640 or DMEM according to the growth requirements of each cell line), supplemented with 10% FBS and antibiotics (streptomycin, 50 μg/mL, and penicillin, 50 U/mL) at 37° in an atmosphere containing 5% CO2. Cells were exposed in 12 well-cell plates to the purified recombinant MGL-BL929 at a concentration range from 0.05 U/mL to 5 U/mL, and were harvested 24 hr., 48 hr., 72 hr., and 96 hr. from start of the exposure. Cell viability was measured with the Trypan blue dye exclusion test in Malassez chambers.

Row | Compound | activity of the enzyme towards the substrate (in words) [1] | Vmax [1] [μmol · min^−1 · m^−1] | Affinity relative to L-methionine (fold greater) ([1]; L-homocysteine compared with L-methionine) [fold] | resistance of the cells to methotrexate (in words) (HT29MTX cells)
1 | N[C@@H](CS)C(=O)O [L-Cysteine, L-cysteine] | no activity | 0 | – | –
2 | Nc1ncnc2c1ncn2[C@@H]1O[C@H](CSCC[C@H](N)C(=O)O)[C@@H](O)[C@H]1O [S-Adenosyl L-homocysteine] | no activity | 0 | – | –
3 | N[C@@H](CCS)C(=O)O [L-Homocysteine, L-homocysteine] | – | 27.7 ± 5.7 | 7.3 | –
4 | N[C@@H](CCSC[C@H](N)C(=O)O)C(=O)O [L-Cystathionine, L-cystathionine] | no activity | 0 | – | –
5 | CSCC[C@@H](N)C(=O)O [D-methionine] | no activity | 0 | – | –
6 | CN(Cc1cnc2nc(N)nc(N)c2n1)c1ccc(C(=O)N[C@@H](CCC(=O)O)C(=O)O)cc1 [methotrexate] | – | – | – | fully resistant
7 | CSCC[C@H](N)C(=O)O [L-Methionine, L-methionine] | – | 5.77 ± 1.4 | – | –
